Data reported in PMC12655637, “Design, Synthesis, and Mechanistic Study of Novel Ciprofloxacin/Thiazole Chalcone Hybrids as Potential Anticancer Agents” (Pharmaceuticals, 2025).

Tests used:
Assay in all cases: NCI-60 screening, one-dose (10 µM) and five-dose, SRB
[1] = tested on: SK-MEL-2; type: cell-based, human; conditions: Homo sapiens; 10 μM; SK-MEL-2, Melanoma; read-out: Growth percentage
[2] = tested on: RXF 393; type: cell-based; conditions: Homo sapiens; 10 μM; RXF 393, Renal Cancer; read-out: Growth percentage
[3] = tested on: CAKI-1; type: cell-based; conditions: Homo sapiens; 10 μM; CAKI-1, Renal Cancer; read-out: Growth percentage
[4] = tested on: A549/ATCC; type: cell-based, human; conditions: Homo sapiens, 10 μM, Non-Small-Cell Lung Cancer, read-out: Growth percentage
[5] = tested on: NCI-H23; type: cell-based, human; conditions: Homo sapiens; 10 μM; NCI-H23, Non-Small-Cell Lung Cancer; read-out: Growth percentage
[6] = tested on: HCC-2998; type: cell-based, human; conditions: Homo sapiens; 10 μM; HCC-2998, Colon Cancer; read-out: Growth percentage
[7] = tested on: SW-620; type: cell-based, human; conditions: Homo sapiens; 10 μM; SW-620, Colon Cancer; read-out: Growth percentage
[8] = tested on: NCI-H226; type: cell-based, human; conditions: Homo sapiens; 10 μM; NCI-H226, Non-Small-Cell Lung Cancer; read-out: Growth percentage
[9] = tested on: MDA-MB-468; type: cell-based, human; conditions: Homo sapiens, MDA-MB-468, 10 μM; MDA-MB-468, Breast Cancer; read-out: Growth percentage
Source text: Control cells Test cells FLD
available usually at NCI library.
An aliquot of frozen drug concentrate is […]

[10] = tested on: SN12C; type: cell-based, human; conditions: Homo sapiens, 10 μM, Renal Cancer, read-out: Growth percentage
[11] = tested on: IGROV1; type: cell-based, human; conditions: 10 μM; IGROV1, Ovarian Cancer
[12] = tested on: SK-OV-3; type: cell-based, human; conditions: Homo sapiens; 10 μM; SK-OV-3, Ovarian Cancer; read-out: Growth percentage
[13] = tested on: HCT-15; type: cell-based, human; conditions: Homo sapiens; 10 μM; HCT-15, Colon Cancer; read-out: Growth percentage
[14] = tested on: NCI-H460; type: cell-based, human; conditions: Homo sapiens, NCI-H460, 10 μM; NCI-H460, Non-Small-Cell Lung Cancer; read-out: Growth percentage
[15] = tested on: HL-60(TB); type: cell-based, human; conditions: Homo sapiens, HL-60, leukemia HL-60
[16] = tested on: PC-3; type: cell-based, human; conditions: Homo sapiens; 10 μM; PC-3, Prostate Cancer; read-out: Growth percentage
[17] = tested on: SK-MEL-5; type: cell-based, human; conditions: Homo sapiens; 10 μM; SK-MEL-5, Melanoma; read-out: Growth percentage
[18] = tested on: HT29; type: cell-based, human; conditions: Homo sapiens, HT-29; 10 μM; HT29, Colon Cancer; read-out: Growth percentage
[19] = tested on: HS 578T; type: cell-based, human; conditions: Homo sapiens, 10 μM, Breast Cancer, read-out: Growth percentage
[20] = tested on: TK-10; type: cell-based, human; conditions: Homo sapiens; 10 μM; TK-10, Renal Cancer; read-out: Growth percentage
[21] = tested on: RPMI-8226; type: cell-based, human; conditions: Homo sapiens, RPMI-8226, RPMI-8226
[22] = tested on: LOX IMVI; type: cell-based, human; conditions: Homo sapiens, 10 μM, Melanoma, read-out: Growth percentage
[23] = tested on: KM12; type: cell-based, human; conditions: Homo sapiens, KM12, 10 μM; KM12, Colon Cancer; read-out: Growth percentage
[24] = tested on: NCI-H322M; type: cell-based, human; conditions: 10 μM, Non-Small-Cell Lung Cancer
[25] = tested on: MALME-3M; type: cell-based, human; conditions: 10 μM, Melanoma
[26] = tested on: ACHN; type: cell-based, human; conditions: Homo sapiens, 10 μM, Renal Cancer, read-out: Growth percentage
[27] = tested on: COLO 205; type: cell-based, human; conditions: Homo sapiens; 10 μM; COLO 205, Colon Cancer; read-out: Growth percentage
[28] = tested on: OVCAR-3; type: cell-based; conditions: Homo sapiens; 10 μM; OVCAR-3, Ovarian Cancer; read-out: Growth percentage

COc1cccc(/C=C/C(=O)c2sc(SCC(=O)N3CCN(c4cc5c(cc4F)c(=O)c(C(=O)O)cn5C4CC4)CC3)nc2C)c1OC [Compound 4k, (E)-1-Cyclopropyl-7-(4-(2-((5-(3-(2,3-dimethoxyphenyl)acryloyl)-4-methylthiazol-2-yl)thio)acetyl)piperazin-1-yl)-6-fluoro-4-oxo-1,4-dihydroquinoline-3-carboxylic Acid]
activity at 10 µM [1]: 93.4% | activity at 10 µM [2]: 86.3% | activity at 10 µM [3]: 107% | activity at 10 µM [4]: 106% | activity at 10 µM [5]: 87.9% | activity at 10 µM [6]: 76.8% | activity at 10 µM [7]: 90.7% | activity at 10 µM [8]: 102% | activity at 10 µM [9]: 48.5% | activity at 10 µM [10]: 87.5% | Growth percentage [11]: 101.3% | activity at 10 µM [12]: 76.7% | activity at 10 µM [13]: 64.5% | activity at 10 µM [14]: 73.1% | IC50 [15]: 2950 nM | activity at 10 µM [16]: 93.5% | activity at 10 µM [17]: 83% | activity at 10 µM [18]: 82.6% | activity at 10 µM [19]: 92.8% | activity at 10 µM [20]: 105% | IC50 [21]: 340 nM | activity at 10 µM [22]: 104% | activity at 10 µM [23]: 4.4% | Growth percentage [24]: 114.8% | Growth percentage [25]: 115.2% | activity at 10 µM [26]: 105% | activity at 10 µM [27]: 126% | activity at 10 µM [28]: 84.5%
